For one series, the target named is T1, CDK9T1 (Homo sapiens, UniProt P50750).
T1 construct: purchased Eurofins Pharma Discovery or Reaction Biology Corporation (service)
The series can be described thus: Kinase assay CDK9/T1 (radiometric or ADP Glo). The format is biochemical. The following applies: apparent Ki calculated from Km (ATP) and IC50; read-out: CDK inhibition Ki CDK9T1. The procedure, abridged: (§1)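 Radiometric inhibition data for CDKs came from Eurofins or Reaction Biology profiling services; CDK4/D1 was also run in-house by ADP-Glo in […] pH 7.5, 20 mM MgCl2, 0.4 mM DTT, 0.1 mg/ml BSA with RB-CTF substrate, 40 min at 37 °C after ATP start. Ten-point 1:3 dilutions (10 μM–0.5 nM); four-parameter IC50, Ki from IC50 and ATP Km.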

In a further series the test system is MV4-11. The series can be described thus: Cell viability assay (resazurin, leukemia cell line) MV4-11. It counts as cell-based, human. Particulars: Homo sapiens, MV4-11, 72 h; read-out: Anti-proliferative activity GI50 MV4-11. The text has this:
(§2) Compounds from Example 1 were subjected to a standard MTT (3-(4,5-dimethylthiazol-2-yl)-2,5-diphenyltetrazolium bromide) and resazurin assays on solid tumour cell lines and leukemia cell lines, respectively, as previously reported (Wang S et al., J Med Chem 47:1662-1675, 2004 and Diab S. et al. CheMedChem 9:962-972, 2014).

A further series concerns the target CDK7H (Homo sapiens, UniProt P50613). The series can be described thus: Kinase assay CDK7H (radiometric profiling service). The format is biochemical. Particulars: for Ki: apparent Ki calculated from Km (ATP) and IC50, read-out: CDK inhibition Ki CDK7H. The procedure, abridged:
(§3)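 IC50 (4-parameter fit) and apparent Ki from Km (ATP). CDK1B, CDK2A, CDK7H: outsourced radiometric. CDK4/D1: radiometric or ADP-Glo, RB-CTF substrate, 40 min at 37° C, ten concentrations from 10 μM down to 0.5 nM.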

The target of a further series is T2, CDK4D1 (Homo sapiens, UniProt P11802).
T2 construct: purchased Eurofins Pharma Discovery or Reaction Biology Corporation (service)
The series can be described thus: Kinase assay CDK4/D1 (radiometric or ADP Glo). It counts as biochemical. Particulars: apparent Ki calculated from Km (ATP) and IC50; read-out: CDK inhibition Ki CDK4D1. The procedure, abridged:
as §3

A further series deals with CDK1B (Homo sapiens, UniProt P06493). The series can be described thus: Kinase assay CDK1B (radiometric profiling service). It counts as biochemical. The following applies: for Ki: apparent Ki calculated from Km (ATP) and IC50, read-out: CDK inhibition Ki CDK1B. The procedure, abridged: as §3
A further series has as its system MDA-MB-453. The experiment in a line: Cell viability assay (MTT, solid tumour cell line) MDA-MB-453. It counts as cell-based, human. The following applies: Homo sapiens, MDA-MB-453, 72 h; read-out: Anti-proliferative activity GI50 MDA-MB-453.
Source text: as §2

The target in a further series is CDK 2A (Homo sapiens, UniProt P24941). The series can be described thus: Kinase assay CDK2A (radiometric profiling service). It counts as biochemical. The following applies: for Ki: apparent Ki calculated from Km (ATP) and IC50, read-out: CDK inhibition Ki CDK 2A. The procedure, abridged: as §3
A further series concerns the target T3, CDK6D3 (Homo sapiens, UniProt Q00534).
T3 construct: purchased Eurofins Pharma Discovery or Reaction Biology Corporation (service)
The series can be described thus: Kinase assay CDK6/D3 (radiometric or ADP Glo). It counts as biochemical. The following applies: apparent Ki calculated from Km (ATP) and IC50; read-out: CDK inhibition Ki CDK6D3. The procedure, abridged: as §1

The test system of a further series is MV4-11 cells. The experiment in a line: Cell cycle analysis (PI staining, flow cytometry). It counts as cell-based, human. The following applies: MV4-11 cells treated for 24 h, FIG. 1. As to the method:
Cell cycle analysis and apoptosis studies were performed as described previously (Diab S. et al. CheMedChem 9:962-972, 2014; Teo T., et al. Cancer Letters, 357(2):612-623, 2015). Briefly, human acute myeloid leukaemia MV4-11 cells (1×10^5) were seeded and incubated overnight at 37° C. and 5% CO2. Cells were centrifuged at 300×g for 5 min upon treatment with inhibitor. Cell pellets were collected and fixed with 70% ethanol on ice for 15 min, followed by centrifugation at 300×g for 5 min. The collected pellets were incubated with staining solution (50 μg/mL PI, 0.1 mg/mL ribonuclease A, 0.05% Triton X-100) at 37° C. for an hour and analysed with Gallios flow cytometer. 1×10^5 of the remaining cells were then used in an apoptotic assay with Annexin V-FITC Apoptosis Detection Kit. The samples were analysed by FACS within one hour of staining. Data were analysed using Kaluza v1.2.
In an example shown in FIG. 1, MV4-11 cells were treated with compound 60 for 24 hat the concentrations shown.
(In general: In flow cytometry, cells or beads pass a laser one at a time.)

The test system of a further series is D458. The series can be described thus: Cell viability assay, medulloblastoma D458. The format is cell-based. Particulars: Homo sapiens; 72 h, Medulloblastoma; read-out: Antiproliferative activity GI50 D458.
Source text: as §2

A short description of the next series: Pharmacokinetics in rat. It counts as in vivo, Wistar Rat. Particulars: po; for bioavailability: vs IV dosing, read-out: Oral bioavailability (F %). Here is the method: (§4) For pharmacokinetic measurements, healthy male adult Balb/C mice (weighing 20-25 g) or Wistar Rat (weighing 250-350 g) were split into weight matched groups of 3 per group. […] Blood samples were collected from animals by jugular vein cannula (rats) or under anaesthesia by cardiac puncture (mice) at time zero and at intervals up to 24 h. Harvested blood was centrifuged at 7000×G for 2 minutes, and the plasma aspirated and frozen at −20° C. until analysis. Quantitative analysis of compound in plasma was carried out using LC-MS/MS methods. Pharmacokinetic data derived using Phoenix WinNonlin 6.4® non-compartmental analysis. Oral bioavailability (% F) was calculated by taking the ratio of dose-normalised AUC values from oral versus parenteral (IV) dosing.

The next series deals with D283. The experiment in a line: Cell viability assay, medulloblastoma D283. Particulars: Homo sapiens, D283; 72 h, Medulloblastoma; read-out: Antiproliferative activity GI50 D283. It counts as cell-based.
Source text: as §2

The test system of a further series is A2780. The series can be described thus: Cell viability assay, ovarian A2780. The format is cell-based. Particulars: Homo sapiens, A2780; 72 h, Ovarian; read-out: Antiproliferative activity GI50 A2780.
Source text: as §2

For another series, the system named is KG-1. The experiment in a line: Cell viability assay, leukemia KG-1. The following applies: Homo sapiens, 72 h, read-out: Antiproliferative activity GI50 KG-1. The format is cell-based.
Source text: as §2

In a further series the test system is MOLM-13. The experiment in a line: Cell viability assay, leukemia MOLM-13. The following applies: Homo sapiens, 72 h, read-out: Antiproliferative activity GI50 MOLM-13. It counts as cell-based.
Source text: as §2

The nature of another series: Pharmacokinetics in mice. The format is in vivo, Balb/C mice. Particulars: po, 10 mg/kg in mice. Here is the method: as §4
[1] abbreviates: male, Wistar, plasma, 40 mg/kg in rat.
[2] abbreviates: male, Wistar, plasma, 20 mg/kg in rat.

CDK1B, sequence (P06493 whole entry): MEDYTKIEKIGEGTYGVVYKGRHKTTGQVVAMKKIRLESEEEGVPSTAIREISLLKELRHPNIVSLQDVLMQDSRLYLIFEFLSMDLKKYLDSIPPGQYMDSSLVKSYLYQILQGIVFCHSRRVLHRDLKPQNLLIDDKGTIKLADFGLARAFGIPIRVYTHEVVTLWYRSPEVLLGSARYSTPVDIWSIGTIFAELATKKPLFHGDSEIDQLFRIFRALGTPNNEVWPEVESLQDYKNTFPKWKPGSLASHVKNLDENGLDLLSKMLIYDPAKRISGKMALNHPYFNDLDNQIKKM
CDK1B, sequence (P14635 whole entry partner): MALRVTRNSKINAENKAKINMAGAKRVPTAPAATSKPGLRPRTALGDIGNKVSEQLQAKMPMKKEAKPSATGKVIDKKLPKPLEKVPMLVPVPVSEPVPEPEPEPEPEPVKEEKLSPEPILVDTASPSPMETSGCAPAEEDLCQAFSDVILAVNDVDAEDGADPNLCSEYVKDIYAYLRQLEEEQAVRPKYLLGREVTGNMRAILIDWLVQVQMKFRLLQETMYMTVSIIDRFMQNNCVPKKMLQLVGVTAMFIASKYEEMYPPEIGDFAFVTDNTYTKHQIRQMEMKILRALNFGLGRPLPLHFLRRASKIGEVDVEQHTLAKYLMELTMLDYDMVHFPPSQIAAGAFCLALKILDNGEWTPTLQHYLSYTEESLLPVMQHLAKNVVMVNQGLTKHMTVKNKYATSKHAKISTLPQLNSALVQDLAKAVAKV
CDK7H, sequence (P50613 whole entry): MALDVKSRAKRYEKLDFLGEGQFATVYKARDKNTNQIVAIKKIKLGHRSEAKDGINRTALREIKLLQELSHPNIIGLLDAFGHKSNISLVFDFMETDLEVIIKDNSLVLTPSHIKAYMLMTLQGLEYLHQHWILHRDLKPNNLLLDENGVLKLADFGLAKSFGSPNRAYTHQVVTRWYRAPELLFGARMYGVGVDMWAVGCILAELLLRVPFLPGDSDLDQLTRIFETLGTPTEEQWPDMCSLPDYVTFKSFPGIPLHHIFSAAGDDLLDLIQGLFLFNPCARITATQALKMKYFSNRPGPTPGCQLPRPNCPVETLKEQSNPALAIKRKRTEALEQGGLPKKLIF
CDK7H, sequence (P51946 whole entry partner): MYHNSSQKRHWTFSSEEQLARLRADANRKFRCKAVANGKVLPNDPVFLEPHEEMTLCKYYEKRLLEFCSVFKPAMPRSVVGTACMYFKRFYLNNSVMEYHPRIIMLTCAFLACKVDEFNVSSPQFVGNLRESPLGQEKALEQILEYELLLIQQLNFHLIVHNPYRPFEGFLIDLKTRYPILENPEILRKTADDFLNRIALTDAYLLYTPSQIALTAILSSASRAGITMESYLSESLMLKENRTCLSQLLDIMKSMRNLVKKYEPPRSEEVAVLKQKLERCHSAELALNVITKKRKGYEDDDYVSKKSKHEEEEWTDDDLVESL
CDK7H, sequence (P51948 whole entry partner): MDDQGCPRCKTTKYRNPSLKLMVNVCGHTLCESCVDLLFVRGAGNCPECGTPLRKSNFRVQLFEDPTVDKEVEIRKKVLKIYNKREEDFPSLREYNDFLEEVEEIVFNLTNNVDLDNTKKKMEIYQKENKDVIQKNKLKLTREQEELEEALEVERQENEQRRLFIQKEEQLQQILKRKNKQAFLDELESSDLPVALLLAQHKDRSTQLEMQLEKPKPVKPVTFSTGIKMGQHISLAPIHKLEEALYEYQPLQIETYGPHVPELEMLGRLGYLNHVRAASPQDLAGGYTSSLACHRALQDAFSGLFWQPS
T3 sequence (Q00534 whole entry): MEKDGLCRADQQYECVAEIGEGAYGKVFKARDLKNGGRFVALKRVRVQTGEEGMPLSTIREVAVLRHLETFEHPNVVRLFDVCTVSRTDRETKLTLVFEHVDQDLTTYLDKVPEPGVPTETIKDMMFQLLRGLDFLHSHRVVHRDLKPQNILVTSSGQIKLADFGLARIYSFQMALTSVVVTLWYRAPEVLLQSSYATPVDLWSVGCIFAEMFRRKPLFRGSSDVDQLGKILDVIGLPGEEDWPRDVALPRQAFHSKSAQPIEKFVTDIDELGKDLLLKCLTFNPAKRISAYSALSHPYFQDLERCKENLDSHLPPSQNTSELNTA
T3 sequence (P30281 whole entry partner): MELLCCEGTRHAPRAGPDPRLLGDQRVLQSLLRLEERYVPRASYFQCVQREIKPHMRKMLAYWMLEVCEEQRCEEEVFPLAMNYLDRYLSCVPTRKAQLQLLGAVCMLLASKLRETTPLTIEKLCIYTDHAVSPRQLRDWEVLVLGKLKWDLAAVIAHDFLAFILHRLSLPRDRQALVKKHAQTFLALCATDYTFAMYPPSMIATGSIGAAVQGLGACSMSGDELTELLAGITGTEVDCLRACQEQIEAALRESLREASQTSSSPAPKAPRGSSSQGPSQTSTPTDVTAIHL
T1 sequence (P50750 whole entry): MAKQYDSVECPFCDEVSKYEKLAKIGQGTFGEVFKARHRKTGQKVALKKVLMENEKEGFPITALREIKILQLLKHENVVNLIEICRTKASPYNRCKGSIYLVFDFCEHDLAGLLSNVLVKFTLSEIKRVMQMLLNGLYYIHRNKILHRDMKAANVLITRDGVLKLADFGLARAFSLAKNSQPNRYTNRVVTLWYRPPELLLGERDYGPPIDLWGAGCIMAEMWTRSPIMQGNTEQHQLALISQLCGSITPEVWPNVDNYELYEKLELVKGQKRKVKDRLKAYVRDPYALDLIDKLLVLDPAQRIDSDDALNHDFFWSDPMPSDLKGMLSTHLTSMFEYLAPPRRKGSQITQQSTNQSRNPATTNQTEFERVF
T1 sequence (O60563 whole entry partner): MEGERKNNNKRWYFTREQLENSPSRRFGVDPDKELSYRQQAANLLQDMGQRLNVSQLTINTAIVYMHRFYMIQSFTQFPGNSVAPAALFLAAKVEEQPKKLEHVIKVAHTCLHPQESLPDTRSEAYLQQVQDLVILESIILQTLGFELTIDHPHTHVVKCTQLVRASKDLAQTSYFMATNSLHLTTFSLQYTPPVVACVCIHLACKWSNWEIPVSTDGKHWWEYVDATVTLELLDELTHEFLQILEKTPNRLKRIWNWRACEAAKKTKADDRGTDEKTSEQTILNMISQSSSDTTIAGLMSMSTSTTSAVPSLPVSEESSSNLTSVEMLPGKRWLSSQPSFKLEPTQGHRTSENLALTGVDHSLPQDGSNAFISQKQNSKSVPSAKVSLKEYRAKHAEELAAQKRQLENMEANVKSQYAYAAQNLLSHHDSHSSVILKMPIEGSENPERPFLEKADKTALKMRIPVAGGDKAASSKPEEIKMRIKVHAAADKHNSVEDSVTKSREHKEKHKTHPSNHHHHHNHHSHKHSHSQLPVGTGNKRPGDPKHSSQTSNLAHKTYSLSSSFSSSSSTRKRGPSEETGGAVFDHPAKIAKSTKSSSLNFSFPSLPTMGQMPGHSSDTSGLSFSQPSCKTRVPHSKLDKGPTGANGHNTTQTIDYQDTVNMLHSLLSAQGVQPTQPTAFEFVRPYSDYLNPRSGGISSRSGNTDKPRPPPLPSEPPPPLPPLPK
T2 sequence (P11802 whole entry): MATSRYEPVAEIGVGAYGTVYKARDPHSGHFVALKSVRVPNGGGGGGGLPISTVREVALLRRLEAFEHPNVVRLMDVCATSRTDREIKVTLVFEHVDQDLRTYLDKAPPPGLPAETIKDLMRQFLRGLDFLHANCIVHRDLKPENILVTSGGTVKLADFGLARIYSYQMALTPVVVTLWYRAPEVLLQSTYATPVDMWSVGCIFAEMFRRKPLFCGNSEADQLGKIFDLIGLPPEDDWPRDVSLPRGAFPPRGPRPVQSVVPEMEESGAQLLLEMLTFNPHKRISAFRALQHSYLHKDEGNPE
T2 sequence (P24385 whole entry partner): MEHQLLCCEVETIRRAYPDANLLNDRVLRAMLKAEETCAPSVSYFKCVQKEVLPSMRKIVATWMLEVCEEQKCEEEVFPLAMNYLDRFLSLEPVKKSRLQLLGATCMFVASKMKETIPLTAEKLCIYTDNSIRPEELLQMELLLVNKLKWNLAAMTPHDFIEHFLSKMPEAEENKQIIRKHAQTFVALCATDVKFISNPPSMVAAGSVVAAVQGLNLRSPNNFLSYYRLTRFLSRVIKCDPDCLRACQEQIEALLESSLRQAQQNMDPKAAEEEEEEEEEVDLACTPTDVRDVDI

One may read the GI50 as the concentration giving 50% growth inhibition. The term remaining activity denotes the share of the control activity or signal that is left under treatment. A word on the melting point: it is the temperature, or range, at which the solid turns liquid. In the case of `Cc1[nH]c(=O)sc1-c1ccnc(Nc2ccc(N3CCN(C)CC3)cn2)n1` [Compound 92, 4-methyl-5-(2-((5-(4-methylpiperazin-1-yl)pyridin-2-yl)amino)pyrimidin-4-yl)thiazol-2(3H)-one], the melting point is 228 to 230 °C. For the same compound, the Ki at CDK9T1 is 950 nM. For the same compound, the GI50 with MV4-11 was found to be 752 ± 33 nM. In addition, the remaining activity at 10 µM at CDK7H (compound at 10 μM, read-out: % remaining enzymatic activity at 10 μM CDK7H) amounted to 24%. For the same compound, the Ki at CDK4D1 is 27 nM. In addition, the remaining activity at 10 µM on CDK1B (compound at 10 μM, read-out: % remaining enzymatic activity at 10 μM CDK1B) was determined as 51%. For the same compound, the GI50 in the series on MDA-MB-453 was determined as 3330 ± 864 nM. In addition, the remaining activity at 10 µM at CDK 2A (compound at 10 μM, read-out: % remaining enzymatic activity at 10 μM CDK 2A) is 61%. Besides, on CDK6D3, the Ki is 155 nM.
What is called AUC is concentration integrated over time. Usually Cmax stands for the maximum level reached in the sampled fluid or tissue. In general, half-life refers to the time needed for the level to fall by half in the phase considered. A word on the bioavailability: it is the share of a dose that reaches the circulation, judged against a reference dose that is usually intravenous. In the case of `Cc1nc(NC2CCCC2)sc1-c1ccnc(Nc2ccc(N3CCNCC3)cn2)n1` [Compound 60, N-cyclopentyl-4-methyl-5-(2-((5-(piperazin-1-yl)pyridin-2-yl)amino)pyrimidin-4-yl)thiazol-2-amine], the GI50 with MV4-11 was found to be 23 ± 24 nM; with D458, 321 ± 68 nM; in the series on D283, 124 ± 20 nM; in the series with A2780, 81 ± 1 nM; with MDA-MB-453, 70 ± 13 nM. For the same compound, in the series on MV4-11 cells, the Cell cycle effect result is listed as “arrested cells in the G1 phase of the cell-cycle in a dose-dependent manner”. In addition, in the series “Pharmacokinetics in rat” (setting [1]), the AUC was determined as 6.6 µM·h. This compound displayed a Cmax in the series “Pharmacokinetics in rat” (setting [1]) of 500 nM. The half-life in “Pharmacokinetics in rat” (setting [1]) is 16.4 h. For the same compound, the bioavailability in “Pharmacokinetics in rat” (setting [1]) was 51%. Besides, the Ki on CDK1B and on CDK 2A was over 5000 nM in each case.
As for `CNc1nc(C)c(-c2nc(Nc3ccc(N4CCN(C(C)=O)CC4)cn3)ncc2C#N)s1` [Compound 34, 2-((5-(4-acetylpiperazin-1-yl)pyridin-2-yl)amino)-4-(4-methyl-2-(methylamino)thiazol-5-yl)pyrimidine-5-carbonitrile], the Ki at CDK9T1 was over 5000 nM; on CDK7H, over 5000 nM; on CDK1B it was over 5000 nM; on CDK 2A it was 4470 nM. Further, the GI50 with MV4-11 stood at 174 ± 22 nM; in the series on KG-1 it was 112 ± 45 nM; in the series on MOLM-13 it was 408 ± 25 nM; with MDA-MB-453, 813 ± 22 nM. This compound came in with an AUC in “Pharmacokinetics in rat” (setting [2]) of 10.2 µM·h. In the series “Pharmacokinetics in rat” (setting [2]), this compound came in with a Cmax of 600 nM. This compound also gave a half-life in the series “Pharmacokinetics in rat” (setting [2]) of 4.6 h. Moreover, in the series “Pharmacokinetics in rat” (setting [2]), the bioavailability amounted to 39%.
As to `Cc1nc(NC2CCCC2)sc1-c1ccnc(Nc2ccc(N3CCOCC3)cn2)n1` [Compound 71, N-cyclopentyl-4-methyl-5-(2-((5-morpholinopyridin-2-yl)amino)pyrimidin-4-yl)thiazol-2-amine], the Ki at CDK9T1 is over 5000 nM; on CDK7H, over 5000 nM; on CDK4D1, 5 nM; on CDK1B, over 5000 nM; on CDK 2A, 2940 nM; on CDK6D3 it was 29 nM. The figures for the GI50 in the series with MV4-11 and in the series on MDA-MB-453 were 335 ± 184 nM and 3680 ± 285 nM, respectively. In addition, the AUC in the series “Pharmacokinetics in rat” (setting [2]) was determined as 15.9 µM·h; in “Pharmacokinetics in mice” (male, Balb/C, mouse, plasma) it was 5.9 µM·h. The bioavailability amounted to 27% in “Pharmacokinetics in rat” (setting [2]) and 100% in “Pharmacokinetics in mice” (male, Balb/C, mouse, plasma, vs IV dosing, read-out: Oral bioavailability (F %)). Also, the Cmax in the series “Pharmacokinetics in rat” (20 mg/kg in rat) was determined as 1400 nM; in “Pharmacokinetics in mice”, 1600 nM. Also, in “Pharmacokinetics in rat” (20 mg/kg in rat), the t1/2 was 2.8 h. The same compound gave a half-life in “Pharmacokinetics in mice” (male, Balb/C, mouse, plasma) of 5 h.
In the case of `Cc1nc(N(C)C)sc1-c1nc(Nc2ccc(N3CCN(C)CC3)cn2)ncc1F` [Compound 46, 5-(5-fluoro-2-((5-(4-methylpiperazin-1-yl)pyridin-2-yl)amino)pyrimidin-4-yl)-N,N,4-trimethylthiazol-2-amine], the Ki at CDK9T1 was 4360 nM; at CDK7H it was over 5000 nM; at CDK4D1, 2 nM; at CDK1B, over 5000 nM; at CDK 2A it was 1390 nM; on CDK6D3, 55 nM. For the same compound, the GI50 with MV4-11 turned out to be 73 ± 10 nM; with KG-1, 5 ± 4 nM; with MOLM-13 it was 98 ± 12 nM; in the series with MDA-MB-453, 638 ± 42 nM.
With `CNc1nc(C)c(-c2nc(Nc3ccc(N4CCC(N(C)C)CC4)cn3)ncc2F)s1` [Compound 47, 5-(2-((5-(4-(dimethylamino)piperidin-1-yl)pyridin-2-yl)amino)-5-fluoropyrimidin-4-yl)-N,4-dimethylthiazol-2-amine], the Ki at CDK9T1 was over 5000 nM; at CDK7H it was over 5000 nM; at CDK4D1 it was 2 nM; on CDK1B, over 5000 nM; at CDK 2A, 3340 nM; on CDK6D3 it was 279 nM. Further, the GI50 in the series on MV4-11 stood at 107 ± 22 nM; in the series on KG-1, 6 ± 1 nM; in the series on MOLM-13, 76 ± 8 nM; in the series with MDA-MB-453, 349 ± 36 nM.
